Experimental data reported in PubChem BioAssay (NCI).
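All cell lines were grown in 96-well plates and treated with compound for 48 hours. At the TGI there is no net growth.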

What was measured:
Experiment in all cases: NCI-60 cell line screen, 48 h
UO-31 renal = tested on: UO-31 renal
NCI-H23 lung = tested on: NCI-H23 lung
U251 CNS = tested on: U251 CNS
HCT-116 colon = tested on: HCT-116 colon
SK-MEL-5 melanoma = tested on: SK-MEL-5 melanoma
MDA-MB-435 = tested on: MDA-MB-435
MCF7 breast = tested on: MCF7 breast
HL-60(TB) leukemia = tested on: HL-60(TB) leukemia
COLO 205 colon = tested on: COLO 205 colon
HT29 colon = tested on: HT29 colon
KM12 colon = tested on: KM12 colon
SNB-19 CNS = tested on: SNB-19 CNS
M14 melanoma = tested on: M14 melanoma
SF-295 CNS = tested on: SF-295 CNS
SK-MEL-2 melanoma = tested on: SK-MEL-2 melanoma
ACHN renal = tested on: ACHN renal
SF-539 CNS = tested on: SF-539 CNS
SN12C renal = tested on: SN12C renal
CCRF-CEM leukemia = tested on: CCRF-CEM leukemia
OVCAR-3 ovarian = tested on: OVCAR-3 ovarian
MDA-N = tested on: MDA-N
DU-145 prostate = tested on: DU-145 prostate
RXF 393 renal = tested on: RXF 393 renal
OVCAR-8 ovarian = tested on: OVCAR-8 ovarian
T-47D breast = tested on: T-47D breast
SK-MEL-28 melanoma = tested on: SK-MEL-28 melanoma
LOX IMVI melanoma = tested on: LOX IMVI melanoma
SW-620 colon = tested on: SW-620 colon
CAKI-1 renal = tested on: CAKI-1 renal
NCI-H460 lung = tested on: NCI-H460 lung
HOP-92 NSCLC = tested on: HOP-92 NSCLC
TK-10 renal = tested on: TK-10 renal
IGROV1 ovarian = tested on: IGROV1 ovarian
SF-268 CNS = tested on: SF-268 CNS
NCI-H226 lung = tested on: NCI-H226 lung
BT-549 breast = tested on: BT-549 breast
HS 578T breast = tested on: HS 578T breast
HOP-62 NSCLC = tested on: HOP-62 NSCLC
NCI-H522 lung = tested on: NCI-H522 lung
A498 renal = tested on: A498 renal
UACC-257 melanoma = tested on: UACC-257 melanoma
SK-OV-3 ovarian = tested on: SK-OV-3 ovarian
PC-3 prostate = tested on: PC-3 prostate
NCI/ADR-RES ovarian = tested on: NCI/ADR-RES ovarian
OVCAR-5 ovarian = tested on: OVCAR-5 ovarian
MDA-MB-231 breast = tested on: MDA-MB-231 breast
MOLT-4 leukemia = tested on: MOLT-4 leukemia
A549 NSCLC = tested on: A549 NSCLC
OVCAR-4 ovarian = tested on: OVCAR-4 ovarian
HCT-15 colon = tested on: HCT-15 colon
EKVX NSCLC = tested on: EKVX NSCLC
UACC-62 melanoma = tested on: UACC-62 melanoma
786-0 renal = tested on: 786-0 renal
SNB-75 CNS = tested on: SNB-75 CNS
K-562 leukemia = tested on: K-562 leukemia
RPMI-8226 leukemia = tested on: RPMI-8226 leukemia
HCC-2998 colon = tested on: HCC-2998 colon

With `COc1ccccc1C1(c2c(OC(C)C)c(=O)c2=O)SCCCS1` as the molecule, how does the TGI (UO-31 renal) read?
Its TGI is over 100 µM.

And the TGI (NCI-H23 lung)?
Its TGI is over 100 µM.

What about the TGI (U251 CNS) of the same molecule?
Its TGI is over 100 µM.

And the TGI (HCT-116 colon)?
Its TGI is over 100 µM.

What about the TGI (SK-MEL-5 melanoma) of the same molecule?
The TGI was over 100 µM.

What about the TGI (MDA-MB-435) of the same molecule?
Its TGI is over 100 µM.

And the TGI (MCF7 breast)?
Its TGI is over 100 µM.

What about the TGI (HL-60(TB) leukemia) of the same molecule?
Its TGI is over 100 µM.

And the TGI (COLO 205 colon)?
The TGI was over 100 µM.

And the TGI (HT29 colon)?
Its TGI is over 100 µM.

And the TGI (KM12 colon)?
The TGI was over 100 µM.

What about the TGI (SNB-19 CNS) of the same molecule?
The TGI was over 100 µM.

And the TGI (M14 melanoma)?
The TGI was over 100 µM.

And the TGI (SF-295 CNS)?
The TGI was over 100 µM.

And the TGI (SK-MEL-2 melanoma)?
Its TGI is over 100 µM.

What about the TGI (ACHN renal) of the same molecule?
Its TGI is over 100 µM.

And the TGI (SF-539 CNS)?
Its TGI is over 100 µM.

And the TGI (SN12C renal)?
The TGI was over 100 µM.

What about the TGI (CCRF-CEM leukemia) of the same molecule?
Its TGI is over 100 µM.

What about the TGI (OVCAR-3 ovarian) of the same molecule?
The TGI was over 100 µM.

And the TGI (MDA-N)?
Its TGI is over 100 µM.

And the TGI (DU-145 prostate)?
The TGI was over 100 µM.

And the TGI (RXF 393 renal)?
The TGI was over 100 µM.

And the TGI (OVCAR-8 ovarian)?
Its TGI is over 100 µM.

And the TGI (T-47D breast)?
The TGI was over 100 µM.

And the TGI (SK-MEL-28 melanoma)?
Its TGI is over 100 µM.

And the TGI (LOX IMVI melanoma)?
Its TGI is over 100 µM.

And the TGI (SW-620 colon)?
Its TGI is over 100 µM.

And the TGI (CAKI-1 renal)?
Its TGI is over 100 µM.

And the TGI (NCI-H460 lung)?
Its TGI is over 100 µM.

What about the TGI (HOP-92 NSCLC) of the same molecule?
Its TGI is over 100 µM.

What about the TGI (TK-10 renal) of the same molecule?
Its TGI is over 100 µM.

And the TGI (IGROV1 ovarian)?
Its TGI is over 100 µM.

And the TGI (SF-268 CNS)?
Its TGI is over 100 µM.

And the TGI (NCI-H226 lung)?
Its TGI is over 100 µM.

And the TGI (BT-549 breast)?
The TGI was over 100 µM.

And the TGI (HS 578T breast)?
The TGI was over 100 µM.

What about the TGI (HOP-62 NSCLC) of the same molecule?
The TGI was over 100 µM.

And the TGI (NCI-H522 lung)?
Its TGI is over 100 µM.

And the TGI (A498 renal)?
Its TGI is over 100 µM.

What about the TGI (UACC-257 melanoma) of the same molecule?
Its TGI is over 100 µM.

And the TGI (SK-OV-3 ovarian)?
The TGI was over 100 µM.

What about the TGI (PC-3 prostate) of the same molecule?
The TGI was over 100 µM.

What about the TGI (NCI/ADR-RES ovarian) of the same molecule?
The TGI was over 100 µM.

What about the TGI (OVCAR-5 ovarian) of the same molecule?
Its TGI is over 100 µM.

And the TGI (MDA-MB-231 breast)?
The TGI was over 100 µM.

What about the TGI (MOLT-4 leukemia) of the same molecule?
The TGI was over 100 µM.

What about the TGI (A549 NSCLC) of the same molecule?
Its TGI is over 100 µM.

What about the TGI (OVCAR-4 ovarian) of the same molecule?
The TGI was over 100 µM.

What about the TGI (HCT-15 colon) of the same molecule?
The TGI was over 100 µM.

And the TGI (EKVX NSCLC)?
The TGI was over 100 µM.

And the TGI (UACC-62 melanoma)?
The TGI was over 100 µM.

And the TGI (786-0 renal)?
The TGI was over 100 µM.

What about the TGI (SNB-75 CNS) of the same molecule?
Its TGI is over 100 µM.

`CO/C=C(/C(=O)OC)c1ccccc1Oc1c(F)c(F)c(F)c(F)c1F` was tested. Which TGI (UO-31 renal) did it give?
The TGI was over 100 µM.

And the TGI (NCI-H23 lung)?
The TGI was over 100 µM.

And the TGI (U251 CNS)?
Its TGI is over 100 µM.

What about the TGI (HCT-116 colon) of the same molecule?
Its TGI is 56 µM.

What about the TGI (SK-MEL-5 melanoma) of the same molecule?
Its TGI is 40.8 µM.

And the TGI (MDA-MB-435)?
The TGI was 77.8 µM.

And the TGI (MCF7 breast)?
Its TGI is over 100 µM.

What about the TGI (HL-60(TB) leukemia) of the same molecule?
The TGI was 5.72 µM.

And the TGI (COLO 205 colon)?
Its TGI is 35.3 µM.

What about the TGI (K-562 leukemia) of the same molecule?
The TGI was over 100 µM.

What about the TGI (HT29 colon) of the same molecule?
Its TGI is over 100 µM.

And the TGI (KM12 colon)?
The TGI was over 100 µM.

And the TGI (SNB-19 CNS)?
The TGI was over 100 µM.

And the TGI (M14 melanoma)?
The TGI was over 100 µM.

What about the TGI (RPMI-8226 leukemia) of the same molecule?
The TGI was 41.2 µM.

And the TGI (SF-295 CNS)?
Its TGI is over 100 µM.

What about the TGI (SK-MEL-2 melanoma) of the same molecule?
Its TGI is 58.1 µM.

What about the TGI (ACHN renal) of the same molecule?
The TGI was over 100 µM.

What about the TGI (SF-539 CNS) of the same molecule?
Its TGI is over 100 µM.

And the TGI (SN12C renal)?
Its TGI is over 100 µM.

What about the TGI (CCRF-CEM leukemia) of the same molecule?
The TGI was 98.5 µM.

And the TGI (OVCAR-3 ovarian)?
The TGI was 62.4 µM.

And the TGI (MDA-N)?
Its TGI is over 100 µM.

And the TGI (DU-145 prostate)?
The TGI was over 100 µM.

What about the TGI (RXF 393 renal) of the same molecule?
Its TGI is 63.8 µM.

What about the TGI (OVCAR-8 ovarian) of the same molecule?
The TGI was over 100 µM.

What about the TGI (T-47D breast) of the same molecule?
Its TGI is 73.1 µM.

And the TGI (SK-MEL-28 melanoma)?
Its TGI is over 100 µM.

And the TGI (LOX IMVI melanoma)?
Its TGI is over 100 µM.

What about the TGI (CAKI-1 renal) of the same molecule?
The TGI was 66.5 µM.

What about the TGI (NCI-H460 lung) of the same molecule?
The TGI was over 100 µM.

And the TGI (HOP-92 NSCLC)?
Its TGI is 69.2 µM.

And the TGI (TK-10 renal)?
The TGI was 88.2 µM.

What about the TGI (IGROV1 ovarian) of the same molecule?
The TGI was 97.7 µM.

And the TGI (SF-268 CNS)?
The TGI was over 100 µM.

What about the TGI (NCI-H226 lung) of the same molecule?
The TGI was over 100 µM.

What about the TGI (BT-549 breast) of the same molecule?
The TGI was over 100 µM.

What about the TGI (HS 578T breast) of the same molecule?
Its TGI is 86 µM.

What about the TGI (HOP-62 NSCLC) of the same molecule?
Its TGI is over 100 µM.

And the TGI (A498 renal)?
The TGI was 92.9 µM.

What about the TGI (UACC-257 melanoma) of the same molecule?
Its TGI is 82.7 µM.

And the TGI (SK-OV-3 ovarian)?
The TGI was over 100 µM.

What about the TGI (PC-3 prostate) of the same molecule?
Its TGI is over 100 µM.

And the TGI (NCI/ADR-RES ovarian)?
Its TGI is over 100 µM.

What about the TGI (HCC-2998 colon) of the same molecule?
The TGI was over 100 µM.

And the TGI (OVCAR-5 ovarian)?
The TGI was over 100 µM.

What about the TGI (MDA-MB-231 breast) of the same molecule?
The TGI was over 100 µM.

What about the TGI (MOLT-4 leukemia) of the same molecule?
Its TGI is 30.4 µM.

And the TGI (A549 NSCLC)?
Its TGI is over 100 µM.

And the TGI (OVCAR-4 ovarian)?
The TGI was 85.4 µM.

What about the TGI (HCT-15 colon) of the same molecule?
Its TGI is over 100 µM.

What about the TGI (EKVX NSCLC) of the same molecule?
The TGI was over 100 µM.

What about the TGI (UACC-62 melanoma) of the same molecule?
Its TGI is 68.5 µM.

And the TGI (786-0 renal)?
Its TGI is over 100 µM.
